Results: US6531493B1, “3-cyclopropylmethoxy-4-difluoromethoxy-N-(3,5-dichloropyrid-4-yl)benzamide in the treatment of multiple sclerosis” (Altana Pharma AG, priority 1999, dated 2003)

Test system: Experimental autoimmune encephalomyelitis (EAE) in female SJL mice
Assay: Experimental autoimmune encephalomyelitis (EAE) induced with PLP139-151, daily clinical scoring
Assay type: in vivo
Conditions: for Number of sick animals: 2 × 5 mg/kg p.o., 2× daily up to day 21, n=10
[1] = oral administration, compared with untreated controls

With O=C(Nc1c(Cl)cncc1Cl)c1ccc(OC(F)F)c(OCC2CC2)c1 [substance A, 3-cyclopropylmethoxy-4-difluoromethoxy-N-(3,5-dichloropyrid-4-yl)benzamide] the “Number of sick animals” value (day 2 after EAE induction) was 0, the “Number of sick animals” value (day 4 after EAE induction) was 0 and the “Number of sick animals” value (day 6 after EAE induction) was 0. The “Number of sick animals” value (day 8 after EAE induction) was 0, the “Number of sick animals” value (day 10 after EAE induction) was 0 and the “Number of sick animals” value (day 12 after EAE induction) was 0. The “Number of sick animals” value (day 14 after EAE induction) was 1, the “Number of sick animals” value (day 16 after EAE induction) was 3 and the “Number of sick animals” value (day 18 after EAE induction) was 3. For the same compound, the “Number of sick animals” value (day 20 after EAE induction) was 3, the “Number of sick animals” value (day 22 after EAE induction) was 3 and the “Number of sick animals” value (day 24 after EAE induction) was 4. For the same compound, the “Number of sick animals” value (day 26 after EAE induction) was 3, the “Number of experimental animals with no MS-analogous symptomatology at all” value (of the 10 treated animals, monitoring period up to the 26th day after EAE induction) was 6 and the “Effect on onset of the MS-analogous symptomatology” value [1] was “delay in the onset of the MS-analogous symptomatology”. The “Effect on the number of animals which suffer from the experimental encephalitis” value [1] was “marked decrease in the number of animals”.
